Assay results reported in ChEMBL document CHEMBL3991601, “The target landscape of clinical kinase drugs” (Science, 2017).
Active and inactive are the calls of the source.

Experiments:
[1] = target: T1, UMP-CMP kinase (Homo sapiens, UniProt P30085)
T1 sequence (P30085 whole entry): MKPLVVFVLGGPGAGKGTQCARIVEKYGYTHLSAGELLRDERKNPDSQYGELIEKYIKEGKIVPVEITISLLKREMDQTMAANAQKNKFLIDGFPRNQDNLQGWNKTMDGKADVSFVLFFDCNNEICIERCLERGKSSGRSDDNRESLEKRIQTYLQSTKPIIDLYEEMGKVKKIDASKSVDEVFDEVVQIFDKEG

[2] = target: Dual specificity testis-specific protein kinase 1 (Homo sapiens, UniProt Q15569)
[3] = target: Focal adhesion kinase 1 (Homo sapiens, UniProt Q05397)
[4] = target: Uncharacterized aarF domain-containing protein kinase 5 (Homo sapiens, UniProt Q3MIX3)
[5] = target: Dual specificity protein kinase CLK3 (Homo sapiens, UniProt P49761); type: subcellular, K-562, COLO 205, SK-N-BE(2) and MV-4-11, Cell lysate; details: read-out: Kd apparent
[6] = target: T2, Protein kinase C zeta type (Homo sapiens, UniProt Q05513)
T2 sequence (Q05513 whole entry): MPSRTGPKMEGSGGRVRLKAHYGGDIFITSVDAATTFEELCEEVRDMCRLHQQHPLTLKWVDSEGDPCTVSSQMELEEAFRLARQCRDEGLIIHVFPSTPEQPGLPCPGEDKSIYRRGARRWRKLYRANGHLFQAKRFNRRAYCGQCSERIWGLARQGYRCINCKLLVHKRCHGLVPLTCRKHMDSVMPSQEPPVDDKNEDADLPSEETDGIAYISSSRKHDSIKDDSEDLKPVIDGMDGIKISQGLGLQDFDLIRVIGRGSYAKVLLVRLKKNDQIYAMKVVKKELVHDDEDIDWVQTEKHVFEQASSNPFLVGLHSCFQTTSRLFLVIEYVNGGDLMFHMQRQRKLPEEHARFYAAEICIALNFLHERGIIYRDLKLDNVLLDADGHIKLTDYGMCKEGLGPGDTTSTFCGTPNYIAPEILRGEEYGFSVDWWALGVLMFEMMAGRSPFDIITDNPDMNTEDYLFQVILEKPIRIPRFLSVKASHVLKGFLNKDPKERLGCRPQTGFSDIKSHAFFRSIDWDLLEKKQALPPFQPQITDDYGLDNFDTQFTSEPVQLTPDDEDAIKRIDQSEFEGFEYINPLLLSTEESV

[7] = target: Serine/threonine-protein kinase N3 (Homo sapiens, UniProt Q6P5Z2)
[8] = target: T3, Thyroid hormone receptor-associated protein 3 (Homo sapiens, UniProt Q9Y2W1)
T3 sequence (Q9Y2W1 whole entry): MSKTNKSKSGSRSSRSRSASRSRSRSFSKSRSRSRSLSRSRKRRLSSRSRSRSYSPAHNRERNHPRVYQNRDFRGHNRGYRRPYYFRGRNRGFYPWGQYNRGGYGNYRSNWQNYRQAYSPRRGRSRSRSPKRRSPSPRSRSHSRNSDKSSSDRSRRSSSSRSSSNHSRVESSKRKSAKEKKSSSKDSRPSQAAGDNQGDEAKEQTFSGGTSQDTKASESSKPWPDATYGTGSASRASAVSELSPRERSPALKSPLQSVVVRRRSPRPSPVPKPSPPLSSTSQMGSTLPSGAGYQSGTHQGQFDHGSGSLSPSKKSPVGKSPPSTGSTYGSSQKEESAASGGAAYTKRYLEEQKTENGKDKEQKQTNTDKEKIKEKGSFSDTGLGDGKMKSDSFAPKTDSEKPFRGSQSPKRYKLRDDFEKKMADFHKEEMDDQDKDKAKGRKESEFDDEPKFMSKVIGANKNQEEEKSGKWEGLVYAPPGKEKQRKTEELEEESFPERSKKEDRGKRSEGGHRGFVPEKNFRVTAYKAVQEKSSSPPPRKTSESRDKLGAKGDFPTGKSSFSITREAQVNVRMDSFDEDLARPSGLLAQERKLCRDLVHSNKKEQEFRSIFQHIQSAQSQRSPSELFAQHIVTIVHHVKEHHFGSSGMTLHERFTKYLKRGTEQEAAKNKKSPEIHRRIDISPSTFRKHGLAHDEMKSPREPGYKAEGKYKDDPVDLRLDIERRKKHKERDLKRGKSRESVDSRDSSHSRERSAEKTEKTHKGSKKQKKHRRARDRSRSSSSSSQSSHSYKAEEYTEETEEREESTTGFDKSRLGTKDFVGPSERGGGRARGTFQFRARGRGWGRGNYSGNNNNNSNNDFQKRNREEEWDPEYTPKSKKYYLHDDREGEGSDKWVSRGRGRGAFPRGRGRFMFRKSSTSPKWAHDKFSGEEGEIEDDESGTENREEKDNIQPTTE

[9] = target: Cell division cycle 7-related protein kinase (Homo sapiens, UniProt O00311)
[10] = target: T4, Dual specificity protein kinase TTK (Homo sapiens, UniProt P33981)
T4 sequence (P33981 whole entry): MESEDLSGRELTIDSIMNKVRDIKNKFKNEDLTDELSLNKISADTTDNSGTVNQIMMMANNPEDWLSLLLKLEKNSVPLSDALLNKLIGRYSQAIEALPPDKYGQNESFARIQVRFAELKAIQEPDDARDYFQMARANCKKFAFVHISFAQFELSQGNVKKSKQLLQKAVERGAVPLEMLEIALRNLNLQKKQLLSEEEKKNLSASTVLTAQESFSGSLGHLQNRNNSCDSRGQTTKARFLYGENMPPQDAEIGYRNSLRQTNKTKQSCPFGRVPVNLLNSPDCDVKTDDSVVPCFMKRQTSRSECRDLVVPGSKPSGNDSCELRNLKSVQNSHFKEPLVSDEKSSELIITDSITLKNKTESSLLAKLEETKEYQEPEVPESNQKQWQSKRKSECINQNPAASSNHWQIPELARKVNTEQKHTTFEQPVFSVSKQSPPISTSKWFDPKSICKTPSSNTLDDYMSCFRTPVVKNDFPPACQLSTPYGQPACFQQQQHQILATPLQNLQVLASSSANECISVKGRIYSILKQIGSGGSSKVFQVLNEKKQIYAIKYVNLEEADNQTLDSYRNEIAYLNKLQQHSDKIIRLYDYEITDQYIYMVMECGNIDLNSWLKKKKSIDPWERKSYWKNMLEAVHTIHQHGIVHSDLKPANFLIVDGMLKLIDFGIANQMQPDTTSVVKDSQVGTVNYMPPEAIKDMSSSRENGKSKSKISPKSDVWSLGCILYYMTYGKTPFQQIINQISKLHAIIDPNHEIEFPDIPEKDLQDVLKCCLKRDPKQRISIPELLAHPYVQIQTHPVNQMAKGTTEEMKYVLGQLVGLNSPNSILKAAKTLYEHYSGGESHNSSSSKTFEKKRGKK
Note: in the data inactive means no Kd found up to 30 µM.

Uncharacterized aarF domain-containing protein kinase 5, sequence (Q3MIX3 whole entry, the tested form may be a part): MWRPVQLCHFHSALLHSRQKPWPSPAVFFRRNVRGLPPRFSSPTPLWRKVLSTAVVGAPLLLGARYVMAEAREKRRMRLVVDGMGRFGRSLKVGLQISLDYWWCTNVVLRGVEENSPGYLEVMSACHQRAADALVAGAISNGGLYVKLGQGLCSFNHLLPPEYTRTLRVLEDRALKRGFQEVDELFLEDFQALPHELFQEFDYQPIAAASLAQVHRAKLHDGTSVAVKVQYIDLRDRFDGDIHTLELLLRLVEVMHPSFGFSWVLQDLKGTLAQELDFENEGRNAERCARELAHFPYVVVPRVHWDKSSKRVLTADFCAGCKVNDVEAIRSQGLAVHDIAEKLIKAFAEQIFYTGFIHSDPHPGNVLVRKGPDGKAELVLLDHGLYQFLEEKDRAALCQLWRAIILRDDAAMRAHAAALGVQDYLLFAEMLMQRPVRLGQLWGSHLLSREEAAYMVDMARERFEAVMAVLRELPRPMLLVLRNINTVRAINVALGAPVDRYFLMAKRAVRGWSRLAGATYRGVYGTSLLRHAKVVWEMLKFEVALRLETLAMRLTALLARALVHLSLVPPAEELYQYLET
Cell division cycle 7-related protein kinase, sequence (O00311 whole entry): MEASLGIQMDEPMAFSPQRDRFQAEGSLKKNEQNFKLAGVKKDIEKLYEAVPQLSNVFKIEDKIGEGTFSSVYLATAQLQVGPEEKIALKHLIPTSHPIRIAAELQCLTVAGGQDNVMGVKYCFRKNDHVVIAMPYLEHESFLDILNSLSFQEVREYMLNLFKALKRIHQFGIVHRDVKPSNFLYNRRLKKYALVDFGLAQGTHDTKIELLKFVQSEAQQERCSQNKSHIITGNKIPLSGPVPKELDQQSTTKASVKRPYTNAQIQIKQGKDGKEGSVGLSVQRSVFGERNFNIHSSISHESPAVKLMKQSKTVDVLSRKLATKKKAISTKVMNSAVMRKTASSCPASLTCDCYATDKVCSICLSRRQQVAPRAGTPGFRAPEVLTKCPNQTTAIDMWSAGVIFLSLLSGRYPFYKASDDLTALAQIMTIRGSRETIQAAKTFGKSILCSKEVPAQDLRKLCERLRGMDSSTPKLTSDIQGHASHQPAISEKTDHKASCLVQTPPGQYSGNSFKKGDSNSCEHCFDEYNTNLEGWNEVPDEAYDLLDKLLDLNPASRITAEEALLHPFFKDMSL
Serine/threonine-protein kinase N3, sequence (Q6P5Z2 whole entry): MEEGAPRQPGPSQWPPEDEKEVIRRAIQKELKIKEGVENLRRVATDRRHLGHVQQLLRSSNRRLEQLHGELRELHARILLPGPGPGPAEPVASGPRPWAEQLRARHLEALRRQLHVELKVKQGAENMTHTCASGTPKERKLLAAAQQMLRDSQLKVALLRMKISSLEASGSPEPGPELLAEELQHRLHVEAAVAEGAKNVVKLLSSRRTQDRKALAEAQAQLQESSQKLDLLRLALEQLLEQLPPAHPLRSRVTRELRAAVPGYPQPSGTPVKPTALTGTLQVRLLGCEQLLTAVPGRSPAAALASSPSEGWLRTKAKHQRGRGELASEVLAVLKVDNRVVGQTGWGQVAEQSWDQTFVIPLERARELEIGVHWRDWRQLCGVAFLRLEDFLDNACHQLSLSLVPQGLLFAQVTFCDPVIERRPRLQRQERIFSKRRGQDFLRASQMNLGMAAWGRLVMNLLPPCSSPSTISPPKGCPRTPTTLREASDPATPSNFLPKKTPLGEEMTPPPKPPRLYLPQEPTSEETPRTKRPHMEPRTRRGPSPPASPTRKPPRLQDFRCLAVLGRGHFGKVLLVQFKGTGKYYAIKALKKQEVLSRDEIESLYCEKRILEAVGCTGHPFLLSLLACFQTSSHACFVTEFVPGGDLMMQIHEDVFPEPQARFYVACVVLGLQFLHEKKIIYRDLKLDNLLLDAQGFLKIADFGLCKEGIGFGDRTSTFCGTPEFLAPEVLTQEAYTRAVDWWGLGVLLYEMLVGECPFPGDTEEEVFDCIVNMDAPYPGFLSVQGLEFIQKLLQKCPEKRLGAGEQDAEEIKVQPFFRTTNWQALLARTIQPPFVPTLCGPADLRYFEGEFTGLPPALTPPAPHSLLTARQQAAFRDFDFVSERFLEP
Dual specificity protein kinase CLK3, sequence (P49761 whole entry): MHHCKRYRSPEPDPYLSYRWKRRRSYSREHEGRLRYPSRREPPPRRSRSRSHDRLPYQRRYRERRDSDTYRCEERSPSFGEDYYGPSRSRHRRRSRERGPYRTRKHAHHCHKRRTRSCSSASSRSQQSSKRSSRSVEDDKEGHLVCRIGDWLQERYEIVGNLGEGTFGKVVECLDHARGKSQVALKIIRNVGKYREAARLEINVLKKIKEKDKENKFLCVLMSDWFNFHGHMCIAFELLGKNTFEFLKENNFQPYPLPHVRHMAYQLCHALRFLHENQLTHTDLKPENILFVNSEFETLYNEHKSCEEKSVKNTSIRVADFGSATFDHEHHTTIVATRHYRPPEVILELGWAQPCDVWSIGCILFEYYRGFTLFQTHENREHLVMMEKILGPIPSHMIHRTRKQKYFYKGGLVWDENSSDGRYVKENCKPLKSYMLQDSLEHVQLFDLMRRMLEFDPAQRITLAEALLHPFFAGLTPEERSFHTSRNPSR
Focal adhesion kinase 1, sequence (Q05397 whole entry, the tested form may be a part): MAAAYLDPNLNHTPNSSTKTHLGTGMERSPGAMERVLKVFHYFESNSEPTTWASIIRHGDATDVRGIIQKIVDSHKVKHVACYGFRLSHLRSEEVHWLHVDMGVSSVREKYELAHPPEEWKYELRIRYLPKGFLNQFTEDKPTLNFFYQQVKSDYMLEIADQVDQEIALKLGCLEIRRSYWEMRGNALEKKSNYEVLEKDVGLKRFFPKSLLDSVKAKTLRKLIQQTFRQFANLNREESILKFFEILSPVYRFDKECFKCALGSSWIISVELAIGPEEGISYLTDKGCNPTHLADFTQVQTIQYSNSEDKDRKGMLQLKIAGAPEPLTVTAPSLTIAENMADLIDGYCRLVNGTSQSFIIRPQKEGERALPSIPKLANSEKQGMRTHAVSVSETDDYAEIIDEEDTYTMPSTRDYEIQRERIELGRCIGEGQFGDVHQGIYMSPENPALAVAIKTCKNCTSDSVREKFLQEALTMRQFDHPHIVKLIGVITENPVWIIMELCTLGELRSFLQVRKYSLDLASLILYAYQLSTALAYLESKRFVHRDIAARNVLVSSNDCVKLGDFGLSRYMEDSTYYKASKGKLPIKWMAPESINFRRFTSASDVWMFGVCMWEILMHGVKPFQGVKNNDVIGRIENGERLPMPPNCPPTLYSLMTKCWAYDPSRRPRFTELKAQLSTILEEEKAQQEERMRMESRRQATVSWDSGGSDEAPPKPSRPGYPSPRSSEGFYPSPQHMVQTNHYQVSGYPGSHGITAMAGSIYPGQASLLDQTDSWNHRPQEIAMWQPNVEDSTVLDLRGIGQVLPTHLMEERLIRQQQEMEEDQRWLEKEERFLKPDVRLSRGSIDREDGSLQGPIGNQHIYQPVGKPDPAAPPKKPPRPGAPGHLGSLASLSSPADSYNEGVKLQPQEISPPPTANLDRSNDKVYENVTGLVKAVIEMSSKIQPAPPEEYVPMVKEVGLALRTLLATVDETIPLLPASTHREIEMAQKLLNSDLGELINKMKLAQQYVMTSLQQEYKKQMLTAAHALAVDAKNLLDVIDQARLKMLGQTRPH
Dual specificity testis-specific protein kinase 1, sequence (Q15569 whole entry): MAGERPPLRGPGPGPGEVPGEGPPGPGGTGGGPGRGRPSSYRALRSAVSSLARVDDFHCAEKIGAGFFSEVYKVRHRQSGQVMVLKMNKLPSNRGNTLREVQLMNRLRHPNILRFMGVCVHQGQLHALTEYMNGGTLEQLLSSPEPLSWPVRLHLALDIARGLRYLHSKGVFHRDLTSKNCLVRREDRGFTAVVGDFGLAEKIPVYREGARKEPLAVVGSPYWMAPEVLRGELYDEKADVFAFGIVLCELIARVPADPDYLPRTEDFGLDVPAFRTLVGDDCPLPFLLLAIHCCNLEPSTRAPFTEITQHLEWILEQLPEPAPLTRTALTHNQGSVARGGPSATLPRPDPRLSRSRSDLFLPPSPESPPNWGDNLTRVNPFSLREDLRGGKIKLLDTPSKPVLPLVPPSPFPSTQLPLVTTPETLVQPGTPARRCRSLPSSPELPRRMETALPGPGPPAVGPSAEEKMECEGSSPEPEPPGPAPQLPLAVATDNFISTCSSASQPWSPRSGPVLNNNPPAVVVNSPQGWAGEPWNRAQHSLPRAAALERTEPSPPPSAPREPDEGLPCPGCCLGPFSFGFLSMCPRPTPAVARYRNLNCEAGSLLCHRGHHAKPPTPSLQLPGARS

Row | SMILES | Kd [1] | Kd [2] | Kd [3] | Kd [4] | Kd [5] | Kd [6] | Kd [7] | Kd [8] | Kd [9] | Kd [10]
1 | C#Cc1cccc(Nc2ncnc3cc4c(cc23)OCCOCCOCCO4)c1 [ICOTINIB] | > 30 µM (inactive) | > 30 µM (inactive) | > 30 µM (inactive) | > 30 µM (inactive) | > 30 µM (inactive) | > 30 µM (inactive) | > 30 µM (inactive) | > 30 µM (inactive) | > 30 µM (inactive) | 
2 | CC1(COc2ccc3c(c2)ncn3-c2ccc3cccc(N4CCC(N)CC4)c3n2)COC1 [CRENOLANIB] | 0.003 µM (active) | > 30 µM (inactive) | > 30 µM (inactive) | > 30 µM (inactive) | > 30 µM (inactive) | > 30 µM (inactive) | > 30 µM (inactive) |  | > 30 µM (inactive) | 
3 | COc1cc(Nc2ncc(F)c(Nc3ccc4c(n3)N(COP(=O)(O)O)C(=O)C(C)(C)O4)n2)cc(OC)c1OC [FOSTAMATINIB] | > 30 µM (inactive) | > 30 µM (inactive) | 5.4 µM (active) | > 30 µM (inactive) | > 30 µM (inactive) | > 30 µM (inactive) |  |  | > 30 µM (inactive) | > 30 µM (inactive)
4 | C=CCn1c(=O)c2cnc(Nc3ccc(N4CCN(C)CC4)cc3)nc2n1-c1cccc(C(C)(C)O)n1 [ADAVOSERTIB] | > 30 µM (inactive) | > 30 µM (inactive) |  | > 30 µM (inactive) | > 30 µM (inactive) | > 30 µM (inactive) | > 30 µM (inactive) | > 30 µM (inactive) | > 30 µM (inactive) | > 30 µM (inactive)
5 | Cc1c(Cn2c(C)nc3c(C(=O)O)cc(N4CCOCC4)cc32)cccc1C(F)(F)F [GSK-2636771] | > 30 µM (inactive) | > 30 µM (inactive) | > 30 µM (inactive) |  | > 30 µM (inactive) | > 30 µM (inactive) |  | > 30 µM (inactive) | > 30 µM (inactive) | > 30 µM (inactive)
6 | Cn1cc(-c2[nH]c3cc(NC(=O)[C@H](N)C4CCCCC4)cc4c3c2C=NNC4=O)cn1 | > 30 µM (inactive) | > 30 µM (inactive) | > 30 µM (inactive) | > 30 µM (inactive) | > 30 µM (inactive) | > 30 µM (inactive) | > 30 µM (inactive) |  | > 30 µM (inactive) | > 30 µM (inactive)
7 | COCCN1CCN(Cc2ccc(-c3n[nH]c4c3C(=O)c3c(NC(=O)NN5CCOCC5)cccc3-4)cc2)CC1 [RGB-286638] | > 30 µM (inactive) | > 30 µM (inactive) | > 30 µM (inactive) | > 30 µM (inactive) | > 30 µM (inactive) | > 30 µM (inactive) |  | > 30 µM (inactive) | > 30 µM (inactive) | 
8 | CCN1CCN(Cc2ccc(Nc3ncc(F)c(-c4cc(F)c5nc(C)n(C(C)C)c5c4)n3)nc2)CC1 [ABEMACICLIB] |  | > 30 µM (inactive) | > 30 µM (inactive) | > 30 µM (inactive) | > 30 µM (inactive) | > 30 µM (inactive) | > 30 µM (inactive) | > 30 µM (inactive) | > 30 µM (inactive) | > 30 µM (inactive)
9 | O=C(NC[C@H](O)CO)c1ccncc1Nc1ccc(I)cc1F [PIMASERTIB] | > 30 µM (inactive) | > 30 µM (inactive) | > 30 µM (inactive) |  | > 30 µM (inactive) | 10.4 µM | > 30 µM (inactive) | > 30 µM (inactive) | > 30 µM (inactive) | > 30 µM (inactive)
10 | O=C(Nc1ccc(OC(F)(F)F)cc1)c1sccc1NCc1ccnc2ccccc12 [OSI-930] |  | > 30 µM (inactive) | > 30 µM (inactive) | > 30 µM (inactive) | > 30 µM (inactive) | > 30 µM (inactive) | > 30 µM (inactive) | > 30 µM (inactive) | > 30 µM (inactive) | > 30 µM (inactive)
11 | COc1cc2nccc(Oc3ccc(NC(=O)C4(C(=O)Nc5ccc(F)cc5)CC4)cc3)c2cc1OC [CABOZANTINIB] | > 30 µM (inactive) |  | > 30 µM (inactive) |  | > 30 µM (inactive) | > 30 µM (inactive) |  | > 30 µM (inactive) | > 30 µM (inactive) | > 30 µM (inactive)
12 | Cc1cc(Nc2nc(N[C@@H](C)c3ncc(F)cn3)ncc2Cl)n[nH]1 [AZD-1480] | > 30 µM (inactive) | > 30 µM (inactive) | 0.191 µM (active) |  | > 30 µM (inactive) | > 30 µM (inactive) | > 30 µM (inactive) | > 30 µM (inactive) | > 30 µM (inactive) | 
13 | CCc1cc2c(cc1N1CCC(N3CCOCC3)CC1)C(C)(C)c1[nH]c3cc(C#N)ccc3c1C2=O [ALECTINIB] | > 30 µM (inactive) | > 30 µM (inactive) | > 30 µM (inactive) | > 30 µM (inactive) | 1.4 µM (active) | > 30 µM (inactive) | > 30 µM (inactive) | > 30 µM (inactive) | > 30 µM (inactive) | > 30 µM (inactive)
14 | O=S(=O)(c1cccc2c(O)nccc12)N1CCCNCC1 [HYDROXYFASUDIL] | > 30 µM (inactive) |  |  | > 30 µM (inactive) | > 30 µM (inactive) | > 30 µM (inactive) | > 30 µM (inactive) | > 30 µM (inactive) |  | > 30 µM (inactive)
